Results on 3 molecules are retold here after US20160115141A1, “CARBOXYLIC ACID DERIVATIVES FOR TREATMENT OF OXIDATIVE STRESS DISORDERS” (EDISON PHARMACEUTICALS, INC., priority 2013, published 2016).

The assay concerns FRDA fibroblasts stressed by addition of L-buthionine-(S,R)-sulfoximine (BSO). Briefly: Rescue of BSO-stressed human dermal fibroblasts from Friedreich's Ataxia patients (Calcein AM viability). The note with it: FRDA fibroblasts GM04078, 1 mM BSO, 48 h, average, compounds of the invention. In kind it is cell-based. Here is the method:
An initial screen was performed to identify compounds effective for the amelioration of redox disorders. Test samples, 4 reference compounds (idebenone, decylubiquinone, Trolox and alpha-tocopherol), and solvent controls were tested for their ability to rescue FRDA fibroblasts stressed by addition of L-buthionine-(S,R)-sulfoximine (BSO), as described in Jauslin et al., Hum. Mol. Genet. 11(24):3055 (2002), Jauslin et al., FASEB J. 17:1972-4 (2003), and International Patent Application WO 2004/003565. […] This specific BSO-mediated cell death can be prevented by administration of antioxidants or molecules involved in the antioxidant pathway, such as alpha-tocopherol, selenium, or small molecule glutathione peroxidase mimetics. However, antioxidants differ in their potency, i.e. the concentration at which they are able to rescue BSO-stressed FRDA fibroblasts.
MEM (a medium enriched in amino acids and vitamins, catalog no. 1-31F24-I) and Medium 199 (M199, catalog no. 1-21F22-I) with Earle's Balanced Salts, without phenol red, were purchased from Bioconcept. Fetal Calf Serum was obtained from PAA Laboratories. Basic fibroblast growth factor and epidermal growth factor were purchased from PeproTech. Penicillin-streptomycin-glutamine mix, L-buthionine (S,R)-sulfoximine, (+)-alpha-tocopherol, decylubiquinone, and insulin from bovine pancreas were purchased from Sigma. Trolox (6-Hydroxy-2,5,7,8-tetramethylchromane-2-carboxylic acid) was obtained from Fluka. Idebenone was obtained from Chemo Iberica. Calcein AM was purchased from Anaspec. Cell culture medium was made by combining 125 ml M199 EBS, 50 ml Fetal Calf Serum, 100 U/ml penicillin, 100 microgram/ml streptomycin, 2 mM glutamine, 10 microgram/ml insulin, 10 ng/ml EGF, and 10 ng/ml bFGF; MEM EBS was added to make the volume up to 500 ml. A 10 mM BSO solution was prepared by dissolving 444 mg BSO in 200 ml of medium (Invitrogen, Carlsbad, Ca.) with subsequent filter-sterilization. During the course of the experiments, this solution was stored at +4° C. […]

SMILES strings stand for the structures.

For `CC1=C(C)C(=O)C(CCC(C)(O)CCC(N)=O)=C(C)C1=O` (stereo not drawn), the EC50 is 70 nM.
For the molecule `CC1=C(C)C(=O)C(CCC2(C)CCC(=O)O2)=C(C)C1=O` (stereo not drawn), the concentration giving a half-maximal response (EC50) was 270 nM.
Take `CCOC(=O)CCC(C)(O)CCC1=C(C)C(=O)C(C)=C(C)C1=O` (stereo not drawn): the EC50 was 275 nM.

As usually defined, the EC50 is the concentration needed to bring the measured effect to its halfway point.
